Experimental findings from US8969325B2, “TRPV1 antagonists” (AbbVie Inc., priority 2011, dated 2015) are described below.

Test [1] concerns the target T1, human TRPV1 (Homo sapiens (Human), UniProt Q8NER1). Description: Acid Activation Assay (pH 5.0, intracellular Ca2+, FLIPR). To be noted: percentage of the maximal pH 5.0-induced response remaining; recombinant HEK293 hTRPV1 cells; maximum concentration tested 37.5 μM. It is filed as cell-based. The gist of the method:
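HEK293 cells stably expressing recombinant hTRPV1, loaded with Calcium-4 dye 90-120 min at 25° C. Compounds added over a 12-point half-log range (top 37.5 μM), then pH 5.0 DPBS/MES challenge after 3 min; FLIPR peak fluorescence over baseline given as % of maximal pH 5.0 response.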

For test [2], the target named is T1, human TRPV1. The test can be described thus: Capsaicin Activation Assay (intracellular Ca2+, FLIPR). It is filed as cell-based. To be noted: recombinant HEK293 cells expressing hTRPV1, 50 nM capsaicin. The gist of the method: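 Stably transfected HEK293 cells expressing human TRPV1 cDNA, plated the day before in poly-D-lysine plates. Compounds serially diluted from 10 mM DMSO stocks; intracellular Ca2+ fluorescence read on FLIPR at 1 to 5 second intervals.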

T1 sequence (Q8NER1 whole entry): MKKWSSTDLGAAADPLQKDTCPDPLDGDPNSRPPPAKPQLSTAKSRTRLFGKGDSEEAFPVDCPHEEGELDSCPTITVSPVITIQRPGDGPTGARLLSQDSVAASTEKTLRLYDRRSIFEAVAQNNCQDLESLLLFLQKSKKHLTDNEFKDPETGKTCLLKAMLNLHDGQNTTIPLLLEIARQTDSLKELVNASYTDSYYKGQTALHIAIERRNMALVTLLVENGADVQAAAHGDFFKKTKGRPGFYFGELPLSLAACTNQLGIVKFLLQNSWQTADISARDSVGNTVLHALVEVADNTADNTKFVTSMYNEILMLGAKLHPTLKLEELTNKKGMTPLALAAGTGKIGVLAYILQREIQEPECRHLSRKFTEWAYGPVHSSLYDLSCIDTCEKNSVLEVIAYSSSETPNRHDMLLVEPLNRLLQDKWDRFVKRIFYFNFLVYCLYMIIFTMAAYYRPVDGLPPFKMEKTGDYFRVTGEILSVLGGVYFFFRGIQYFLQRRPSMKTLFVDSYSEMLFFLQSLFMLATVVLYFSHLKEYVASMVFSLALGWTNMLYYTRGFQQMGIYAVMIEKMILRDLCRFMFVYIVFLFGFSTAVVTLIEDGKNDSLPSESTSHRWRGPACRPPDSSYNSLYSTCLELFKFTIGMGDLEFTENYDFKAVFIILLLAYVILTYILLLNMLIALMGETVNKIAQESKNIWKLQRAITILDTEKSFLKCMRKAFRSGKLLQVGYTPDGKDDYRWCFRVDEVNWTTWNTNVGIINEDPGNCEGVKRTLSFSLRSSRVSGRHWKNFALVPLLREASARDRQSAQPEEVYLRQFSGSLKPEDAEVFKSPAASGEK

On to `Cn1c(=O)ccc2c(NC(=O)N[C@@H]3CCOc4cc(C(F)(F)F)ccc43)cccc21` [Example 64, 1-(1-methyl-2-oxo-1,2-dihydroquinolin-5-yl)-3-[(4R)-7-(trifluoromethyl)-3,4-dihydro-2H-chromen-4-yl]urea], for which the “human TRPV1 H^+ (max % remain)” value at human TRPV1 [1] is listed as 26%. For the same molecule, the IC50 at human TRPV1 [2] was 14 nM.
Take `CN1Cc2ccc(NC(=O)N[C@@H]3CCc4cc(C(C)(C)C)ccc43)cc2NC1=O` [Example 179, 1-[(1R)-5-tert-butyl-2,3-dihydro-1H-inden-1-yl]-3-(3-methyl-2-oxo-1,2,3,4-tetrahydroquinazolin-7-yl)urea]: the “human TRPV1 H^+ (max % remain)” value on human TRPV1 [1] worked out at 37%. Also, the IC50 on human TRPV1 [2] came to 190 nM.
For `CCC1(CC)C[C@@H](NC(=O)Nc2ccc3c(c2)NC(=O)CC3)c2ccccc2O1` [Example 223, 1-[(4R)-2,2-diethyl-3,4-dihydro-2H-chromen-4-yl]-3-(2-oxo-1,2,3,4-tetrahydroquinolin-7-yl)urea] the same measures were 44% and 37 nM.
In the case of `Cn1c(=O)ccc2c(NC(=O)N[C@@H]3CCc4cc(Cl)ccc43)cccc21` [Example 96, 1-[(1R)-5-chloro-2,3-dihydro-1H-inden-1-yl]-3-(1-methyl-2-oxo-1,2-dihydroquinolin-5-yl)urea], the “human TRPV1 H^+ (max % remain)” value on human TRPV1 [1] came to 37%. The IC50 at human TRPV1 [2] worked out at 8 nM.
Turning to `CN1Cc2ccc(NC(=O)N[C@@H]3CC(C)(C)Oc4ccccc43)cc2NC1=O` [Example 193, 1-[(4R)-2,2-dimethyl-3,4-dihydro-2H-chromen-4-yl]-3-(3-methyl-2-oxo-1,2,3,4-tetrahydroquinazolin-7-yl)urea], the “human TRPV1 H^+ (max % remain)” value on human TRPV1 [1] is 56%. Besides, the IC50 on human TRPV1 [2] is 270 nM.
Take `CCC1(CC)C[C@@H](NC(=O)Nc2cccc3c2CNC(=O)N3C)c2ccccc2O1` [Example 140, 1-[(4R)-2,2-diethyl-3,4-dihydro-2H-chromen-4-yl]-3-(1-methyl-2-oxo-1,2,3,4-tetrahydroquinazolin-5-yl)urea]: the “human TRPV1 H^+ (max % remain)” value at human TRPV1 [1] came out at 27%. The IC50 on human TRPV1 [2] was 11 nM.
Regarding `CN1C(=O)NCc2c(NC(=O)N[C@@H]3CC(C)(C)Oc4ccc(F)cc43)cccc21` [Example 157, 1-[(4R)-6-fluoro-2,2-dimethyl-3,4-dihydro-2H-chromen-4-yl]-3-(1-methyl-2-oxo-1,2,3,4-tetrahydroquinazolin-5-yl)urea], at human TRPV1 [1], the “human TRPV1 H^+ (max % remain)” value was 36%. For the same molecule, the IC50 at human TRPV1 [2] turned out to be 47 nM.
For `CC1(C)C[C@@H](NC(=O)Nc2ccc3c(c2)NC(=O)N(CCO)C3)c2ccc(C(F)(F)F)nc2O1` [Example 62, 1-[(4R)-2,2-dimethyl-7-(trifluoromethyl)-3,4-dihydro-2H-pyrano[2,3-b]pyridin-4-yl]-3-[3-(2-hydroxyethyl)-2-oxo-1,2,3,4-tetrahydroquinazolin-7-yl]urea] the same measures were 9% and 1500 nM.
In the case of `CN1C(=O)NCc2c(NC(=O)N[C@@H]3C[C@](C)(C(F)(F)F)Oc4ccccc43)cccc21` [Example 166, 1-(1-methyl-2-oxo-1,2,3,4-tetrahydroquinazolin-5-yl)-3-[(2R,4R)-2-methyl-2-(trifluoromethyl)-3,4-dihydro-2H-chromen-4-yl]urea], the “human TRPV1 H^+ (max % remain)” value on human TRPV1 [1] amounted to 10%. Also, the IC50 at human TRPV1 [2] worked out at 1 nM.
Take `Cn1c(=O)ccc2c(NC(=O)N[C@@H]3CC(CF)(CF)Oc4c(F)cccc43)cccc21` [Example 95, 1-[(4R)-8-fluoro-2,2-bis(fluoromethyl)-3,4-dihydro-2H-chromen-4-yl]-3-(1-methyl-2-oxo-1,2-dihydroquinolin-5-yl)urea]: the “human TRPV1 H^+ (max % remain)” value on human TRPV1 [1] is listed as 54%. In addition, the IC50 at human TRPV1 [2] worked out at 63 nM.
In the case of `CCC1(CC)C[C@@H](NC(=O)Nc2ccc3c(c2)NC(=O)N(C)C3)c2ccc(OC(F)(F)F)cc2O1` [Example 191, 1-[(4R)-2,2-diethyl-7-(trifluoromethoxy)-3,4-dihydro-2H-chromen-4-yl]-3-(3-methyl-2-oxo-1,2,3,4-tetrahydroquinazolin-7-yl)urea], the “human TRPV1 H^+ (max % remain)” value on human TRPV1 [1] was determined as 19%. For the same molecule, the IC50 at human TRPV1 [2] worked out at 450 nM.
On to `CCC1(CC)C[C@@H](NC(=O)Nc2ccc3c(c2)N(C)C(=O)CC3)c2cc(F)ccc2O1` [Example 270, 1-[(4R)-2,2-diethyl-6-fluoro-3,4-dihydro-2H-chromen-4-yl]-3-(1-methyl-2-oxo-1,2,3,4-tetrahydroquinolin-7-yl)urea], for which the “human TRPV1 H^+ (max % remain)” value at human TRPV1 [1] is 86%. Besides, the IC50 at human TRPV1 [2] was determined as 220 nM.
For `O=C1CCc2ccc(NC(=O)N[C@@H]3CCc4cc(F)ccc43)cc2N1` [Example 240, 1-[(1R)-5-fluoro-2,3-dihydro-1H-inden-1-yl]-3-(2-oxo-1,2,3,4-tetrahydroquinolin-7-yl)urea] the same measures were 25% and 37 nM.
The corresponding values for `CCCC1(CCC)C[C@@H](NC(=O)Nc2ccc3c(c2)NC(=O)CO3)c2cc(F)ccc2O1` [Example 107, 1-[(4R)-6-fluoro-2,2-dipropyl-3,4-dihydro-2H-chromen-4-yl]-3-(3-oxo-3,4-dihydro-2H-1,4-benzoxazin-6-yl)urea] are 113% and 400 nM.
Consider `Cn1c(=O)ccc2c(NC(=O)N[C@@H]3CC(C)(C)Oc4c(F)cccc43)cccc21` [Example 94, 1-[(4R)-8-fluoro-2,2-dimethyl-3,4-dihydro-2H-chromen-4-yl]-3-(1-methyl-2-oxo-1,2-dihydroquinolin-5-yl)urea], for which the “human TRPV1 H^+ (max % remain)” value at human TRPV1 [1] worked out at 53%. Also, the IC50 at human TRPV1 [2] is 19 nM.
The corresponding values for `CN1C(=O)NCc2c(NC(=O)N[C@@H]3CC(C)(C(F)F)Oc4cc(Cl)ccc43)cccc21` (stereo partly drawn) [Example 136, 1-[(4R)-7-chloro-2-(difluoromethyl)-2-methyl-3,4-dihydro-2H-chromen-4-yl]-3-(1-methyl-2-oxo-1,2,3,4-tetrahydroquinazolin-5-yl)urea] are 26% and 23 nM.
Regarding `O=C(Nc1ccc2c(c1)NC(=O)N(CCO)C2)N[C@@H]1CC2(CCCC2)Oc2ccccc21` [Example 317, 1-[(4R)-3,4-dihydrospiro[chromene-2,1′-cyclopentan]-4-yl]-3-[3-(2-hydroxyethyl)-2-oxo-1,2,3,4-tetrahydroquinazolin-7-yl]urea], the “human TRPV1 H^+ (max % remain)” value at human TRPV1 [1] was found to be 17%. Besides, the IC50 on human TRPV1 [2] amounted to 600 nM.
For `CC1(C)C[C@@H](NC(=O)Nc2ccc3c(c2)NC(=O)N(CCO)C3)c2ccc(F)c(Cl)c2O1` [Example 312, 1-[(4R)-8-chloro-7-fluoro-2,2-dimethyl-3,4-dihydro-2H-chromen-4-yl]-3-[3-(2-hydroxyethyl)-2-oxo-1,2,3,4-tetrahydroquinazolin-7-yl]urea], the “human TRPV1 H^+ (max % remain)” value on human TRPV1 [1] came to 36%. The IC50 on human TRPV1 [2] worked out at 200 nM.
Consider `CCC1(CC)C[C@@H](NC(=O)Nc2cccc3c2ccc(=O)n3C)c2ccc(C(F)(F)F)cc2O1` [Example 69, 1-[(4R)-2,2-diethyl-7-(trifluoromethyl)-3,4-dihydro-2H-chromen-4-yl]-3-(1-methyl-2-oxo-1,2-dihydroquinolin-5-yl)urea], for which, on human TRPV1 [1], the “human TRPV1 H^+ (max % remain)” value turned out to be 13%. For the same molecule, the IC50 on human TRPV1 [2] was 55 nM.
For `Cn1c(=O)ccc2c(NC(=O)N[C@@H]3CC(CF)(CF)Oc4cc(Cl)ccc43)cccc21` [Example 20, 1-[(4R)-7-chloro-2,2-bis(fluoromethyl)-3,4-dihydro-2H-chromen-4-yl]-3-(1-methyl-2-oxo-1,2-dihydroquinolin-5-yl)urea] the same measures were 34% and 58 nM.
Take `CN1C(=O)NCc2c(NC(=O)N[C@@H]3CC(C)(C)Oc4c3ccc(F)c4Cl)cccc21` [Example 5, 1-[(4R)-8-chloro-7-fluoro-2,2-dimethyl-3,4-dihydro-2H-chromen-4-yl]-3-(1-methyl-2-oxo-1,2,3,4-tetrahydroquinazolin-5-yl)urea]: the “human TRPV1 H^+ (max % remain)” value on human TRPV1 [1] came out at 24%. Also, at human TRPV1 [2], the IC50 was found to be 17 nM.
On to `COCCN(C)C1Cc2ccc(NC(=O)N[C@@H]3CC(C)(C)Oc4cc(F)ccc43)cc2NC1=O` (stereo partly drawn) [Example 305, 1-[(4R)-7-fluoro-2,2-dimethyl-3,4-dihydro-2H-chromen-4-yl]-3-{3-[(2-methoxyethyl)(methyl)amino]-2-oxo-1,2,3,4-tetrahydroquinolin-7-yl}urea], for which the “human TRPV1 H^+ (max % remain)” value on human TRPV1 [1] was found to be 26%. Further, the IC50 at human TRPV1 [2] worked out at 2000 nM.
The corresponding values for `Cn1c(=O)ccc2c(NC(=O)N[C@@H]3C[C@@](C)(CF)Oc4cc(Cl)ccc43)cccc21` [Example 41, 1-[(2S,4R)-7-chloro-2-(fluoromethyl)-2-methyl-3,4-dihydro-2H-chromen-4-yl]-3-(1-methyl-2-oxo-1,2-dihydroquinolin-5-yl)urea] are 74% and 12 nM.
As to `O=C1COc2ccc(NC(=O)N[C@@H]3CC(CF)(CF)Oc4c(F)cccc43)cc2N1` [Example 116, 1-[(4R)-8-fluoro-2,2-bis(fluoromethyl)-3,4-dihydro-2H-chromen-4-yl]-3-(3-oxo-3,4-dihydro-2H-1,4-benzoxazin-6-yl)urea], the “human TRPV1 H^+ (max % remain)” value at human TRPV1 [1] is given as 99%. For the same molecule, on human TRPV1 [2], the IC50 came to 2000 nM.
For `CCC1(CC)C[C@@H](NC(=O)Nc2ccc3c(c2)NC(=O)N(CCO)C3)c2ccccc2O1` [Example 45, 1-[(4R)-2,2-diethyl-3,4-dihydro-2H-chromen-4-yl]-3-[3-(2-hydroxyethyl)-2-oxo-1,2,3,4-tetrahydroquinazolin-7-yl]urea] the same measures were 4% and 43 nM.
For `O=C1CCc2ccc(NC(=O)N[C@@H]3CC(CF)(CF)Oc4cc(C(F)(F)F)ccc43)cc2N1` [Example 320, 1-[(4R)-2,2-bis(fluoromethyl)-7-(trifluoromethyl)-3,4-dihydro-2H-chromen-4-yl]-3-(2-oxo-1,2,3,4-tetrahydroquinolin-7-yl)urea] the same measures were 80% and 12 nM.
